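Interpolation was linear, between the two tested concentrations surrounding the appropriate level; five concentrations were tested over 48 hours in 96-well plates. At the TGI there is no net growth.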
Key:
Assay in all cases: DTP human tumour cell line panel, 48 h
[1] = test system: HOP-92 NSCLC
[2] = test system: RPMI-8226 leukemia
[3] = test system: SR leukemia
[4] = test system: LXFL 529 NSCLC
[5] = test system: COLO 205 colon
[6] = test system: NCI-H226 lung
[7] = test system: SNB-75 CNS
[8] = test system: NCI-H460 lung
[9] = test system: EKVX NSCLC
[10] = test system: OVCAR-8 ovarian
[11] = test system: SF-268 CNS
[12] = test system: SNB-78 CNS
[13] = test system: SK-MEL-28 melanoma
[14] = test system: OVCAR-4 ovarian
[15] = test system: SF-539 CNS
[16] = test system: SW-620 colon
[17] = test system: SK-OV-3 ovarian
[18] = test system: HT29 colon
[19] = test system: HOP-18 NSCLC
[20] = test system: UACC-62 melanoma
[21] = test system: A498 renal
[22] = test system: XF 498 CNS
[23] = test system: RXF-631 renal
[24] = test system: OVCAR-5 ovarian
[25] = test system: SK-MEL-5 melanoma
[26] = test system: LOX IMVI melanoma
[27] = test system: K-562 leukemia
[28] = test system: KM20L2 colon
[29] = test system: CAKI-1 renal
[30] = test system: MALME-3M melanoma
[31] = test system: HL-60(TB) leukemia
[32] = test system: MOLT-4 leukemia
[33] = test system: HOP-62 NSCLC
[34] = test system: ACHN renal
[35] = test system: TK-10 renal
[36] = test system: DMS 273 small cell lung
[37] = test system: NCI-H23 lung
[38] = test system: SF-295 CNS
[39] = test system: HCC-2998 colon
[40] = test system: DLD-1 colon
[41] = test system: CCRF-CEM leukemia
[42] = test system: M14 melanoma
[43] = test system: OVCAR-3 ovarian
[44] = test system: U251 CNS
[45] = test system: 786-0 renal
[46] = test system: DMS 114 small cell lung
[47] = test system: SNB-19 CNS
[48] = test system: SK-MEL-2 melanoma
[49] = test system: NCI-H522 lung
[50] = test system: IGROV1 ovarian
[51] = test system: UO-31 renal
[52] = test system: A549 NSCLC
[53] = test system: HCT-15 colon
[54] = test system: UACC-257 melanoma
[55] = test system: SN12C renal
[56] = test system: HCT-116 colon
[57] = test system: KM12 colon
[58] = test system: RXF 393 renal
[59] = test system: M19-MEL melanoma

Measured: TGI

COc1ccc(CC(C)N)cc1 (stereo not given)
not listed: [59]
> 100 µM: all other assays above

CCCCCCCCCCCCCCCC(=O)OCC1OC(n2c(O)c(N=NC(N)=S)c3ccc([N+](=O)[O-])cc32)C(OC(C)=O)C1OC(C)=O (stereo not given)
not listed: [21] | [51]
> 100 µM: all other assays above
